Among the data in PubChem BioAssay AID687005 (Broad Institute, 2013) are activity change, negative = cytotoxicity values, retold here.

Records with an inconclusive call do not appear. Active and inactive are the calls of the source.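 The calls were made as follows: active = Compounds that reduce signal, with fitted half-maximal dose at or under twice the top valid tested dose; inconclusive = Poor fit, or flat curve losing 30 to 70% of signal; inactive = Potency past limit, flat within 30%, or opposite direction.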

One experiment is described as follows: HEK293T cell cytotoxicity, dose response, cytotoxicity control, ATP luminescence, cherry-pick samples (AID 687005). The conditions noted are these: HEK293T viability, ATP luminescence (CellTiter-Glo), 48 h; at 18 µM (top of the series).
Consider `CN1CCN(C(=O)CN(c2ccc(I)cc2)S(=O)(=O)c2ccccc2)CC1`, for which the activity change, negative = cytotoxicity was 45.2% (inactive).

Staying with this experiment, now noted: HEK293T viability, ATP luminescence (CellTiter-Glo), 48 h; at 23.5 µM (top of the series).
As for `Cc1noc(C)c1NC(=O)N(C)C[C@H]1Oc2ccc(NS(=O)(=O)c3cn(C)cn3)cc2CC(=O)N([C@H](C)CO)C[C@H]1C`, the activity change, negative = cytotoxicity was -32.1% (inactive). The same measure, in the same setting: the figure for `C[C@@H]1CN([C@@H](C)CO)C(=O)c2cc(NS(=O)(=O)c3ccccc3)ccc2O[C@H]1CN(C)C(=O)NC1CCCCC1` is -17.7% (inactive); for `CC(C)NC(=O)Nc1ccc2c(c1)C(=O)N([C@@H](C)CO)C[C@@H](C)[C@@H](CN(C)C(=O)NC1CCCCC1)OCCCC[C@H](C)O2` it is -7.35% (inactive); for `C[C@@H]1CN([C@@H](C)CO)C(=O)CCCn2cc(nn2)CO[C@@H]1CN(C)Cc1ccc2c(c1)OCO2` it is -1.87% (inactive).

The experiment is the same for the next values; noted with them: HEK293T viability, ATP luminescence (CellTiter-Glo), 48 h; at 26 µM (top of the series).
On to `C[C@@H]1CN([C@H](C)CO)C(=O)c2cc(N(C)C)ccc2O[C@@H]1CN(C)C(=O)Nc1ccc(C(F)(F)F)cc1`, for which the activity change, negative = cytotoxicity was -77.2% (inactive). The same measure, in the same setting: the figure for `COc1ccc(C#Cc2ccc3c(c2)O[C@H](CN(C)C(C)=O)[C@@H](C)CN([C@@H](C)CO)S3(=O)=O)cc1` is -74% (inactive); for `C[C@H]1CN([C@@H](C)CO)C(=O)c2cccc(N(C)C)c2O[C@@H]1CN(C)C(=O)Nc1cccc2ccccc12` it is -6.36% (inactive). Same read-out and setting: in the case of `O=C(C[C@@H]1CC[C@H]2[C@@H](COC[C@H](O)CN2Cc2cccc(C(F)(F)F)c2)O1)NCc1ccccc1` it was -14.1% (inactive); in that of `C[C@@H]1CN([C@H](C)CO)C(=O)c2cc(/C=C/c3ccccc3)cnc2O[C@@H]1CN(C)S(C)(=O)=O`, -0.658% (inactive).

For the compound `CC(C)NC(=O)Nc1ccc2c(c1)C(=O)N([C@H](C)CO)C[C@H](C)[C@H](CN(C)Cc1ccncc1)OCCCC[C@H](C)O2`, the activity change, negative = cytotoxicity is -57.3% (inactive).

Take `CO[C@@H]1CC[C@@H]2CCOc3c(C#N)cccc3C(=O)N(C)C[C@H](c3ccccc3)CC(=O)N(C)C[C@@H]1O2`: the activity change, negative = cytotoxicity was -28.5% (inactive).

For the compound `COc1cccc(S(=O)(=O)Nc2ccc3c(c2)[C@H]2C[C@H](CC(=O)N(C)C)O[C@@H](CO)[C@H]2O3)c1`, the activity change, negative = cytotoxicity is -5.49% (inactive). The same measure, in the same setting: the figure for `O=C(NC1CCCC1)N1CCCCN2[C@H](CO)[C@H](c3ccc(-c4cncnc4)cc3)[C@@H]2C1` is -34.7% (inactive); for `CO[C@H]1CN(C)C(=O)c2cc(NS(=O)(=O)c3ccc(C)cc3)ccc2OC[C@@H](C)N(C(=O)NC(C)C)C[C@@H]1C` it is 26.2% (inactive); for `COc1cccc(NC(=S)N2CCC(Cc3ccccc3)CC2)c1` it is 15.7% (inactive).

Regarding `CC(C)COc1ccc(CNC(=S)NCc2ccccc2)cc1`, the activity change, negative = cytotoxicity was -1.46% (inactive). Same read-out and setting: in the case of `Cc1noc(C)c1NC(=O)N(C)C[C@@H]1Oc2ccc(NC(=O)C3CC3)cc2CC(=O)N([C@H](C)CO)C[C@@H]1C` it was 30.7% (inactive); in that of `Cc1ccc(S(=O)(=O)N(C)C[C@@H]2Oc3ncc(Br)cc3C(=O)N([C@@H](C)CO)C[C@H]2C)cc1`, -14.6% (inactive). Take `Cc1ccccc1NC(=O)C(NC1CCCCC1)C(C)C` (centres undefined): the activity change, negative = cytotoxicity was -12.2% (inactive).

`Cc1cccc(C)c1NC(=O)C(CCc1ccccc1)N1CCC(c2ccccc2)CC1` (centres undefined): the activity change, negative = cytotoxicity is -63.1% (inactive). Still for that read-out and setting: in the case of `C[C@H]1CN([C@@H](C)CO)C(=O)CCCn2nncc2CO[C@H]1CN(C)C(=O)Oc1cccc2ccccc12` it was -6.41% (inactive); in that of `C[C@@H]1CCCCO[C@H](CN(C)S(=O)(=O)c2cccs2)[C@@H](C)CN([C@@H](C)CO)C(=O)c2cc(NC(=O)CCC(F)(F)F)ccc2O1`, 0.337% (inactive); in that of `CCCC(=O)Nc1ccc2c(c1)C(=O)N(C)C[C@H](OC)[C@@H](C)CN(C(=O)c1cccnc1)[C@@H](C)CO2`, 4.75% (inactive). Still for that read-out and setting: the figure for `Cc1ccc(S(=O)(=O)N[C@H]2CC[C@H](CCNC(=O)C3CCCC3)O[C@@H]2CO)cc1` is -7.25% (inactive). The same measure, in the same setting: the figure for `C[C@H](NC(=O)C[C@H]1CC[C@@H](NC(=O)Cc2ccccn2)[C@@H](CO)O1)c1ccccc1` is 25.6% (inactive); for `Cc1noc(C)c1NC(=O)N(C)C[C@H]1Oc2ccc(N(C)C)cc2C(=O)N([C@H](C)CO)C[C@@H]1C` it is -11.8% (inactive).

`CNC[C@@H]1Oc2cc(Br)ccc2S(=O)(=O)N([C@H](C)CO)C[C@H]1C`: the activity change, negative = cytotoxicity is 28.3% (inactive).

Consider `O=C1CCC(C(=O)Nc2cccc(C(F)(F)F)c2)N1` (centres undefined), for which the activity change, negative = cytotoxicity was 22% (inactive). On the same count and under the same terms, in the case of `CCCC#Cc1cnc2c(c1)C(=O)N([C@@H](C)CO)C[C@H](C)[C@H](CN(C)C(=O)Nc1cccc(F)c1)O2` it was 42% (inactive); in that of `CCCNC(=O)C[C@H]1C[C@H]2c3cc(NC(=O)Nc4ccc(OC)cc4)ccc3O[C@H]2[C@@H](CO)O1`, -21% (inactive).

As to `CCCC(=O)Nc1ccc2c(c1)OC[C@H](C)N(Cc1ccccn1)C[C@H](C)[C@H](OC)CN(C)C2=O`, the activity change, negative = cytotoxicity is 16.2% (inactive). On the same count and under the same terms, in the case of `O=C(C[C@H]1CC[C@H]2[C@@H](COC[C@@H](O)CN2C(=O)Nc2ccc(Cl)cc2)O1)N1CCCCC1` it was 25.8% (inactive); in that of `CCCN(C)C[C@H]1OCCCC[C@@H](C)Oc2ccc(NC(=O)NC(C)C)cc2C(=O)N([C@@H](C)CO)C[C@H]1C`, -9.71% (inactive); in that of `Cc1ccc(C2CC(c3cccs3)=NN2C(=O)c2ccc(Br)o2)cc1` (centres undefined), 39% (inactive).

`Cc1cccc(NC(=O)C2NC(=O)CC2c2ccccc2)c1C` (centres undefined): the activity change, negative = cytotoxicity is 8.03% (inactive). Turning to `C[C@H](CO)N1C[C@H](C)[C@@H](CN(C)C(=O)Nc2ccc3c(c2)OCO3)Oc2ccc(NS(=O)(=O)c3cccs3)cc2C1=O`, the activity change, negative = cytotoxicity was -1.88% (inactive). The same measure, in the same setting: in the case of `O=C(C1CCOCC1)N1C[C@H]2[C@@H](c3ccccc31)[C@@H](CO)N2Cc1ccccc1Cl` it was 3.34% (inactive). Same read-out and setting: the figure for `O=c1nc(-c2ccccc2)c2ccccc2[nH]1` is 1.46% (inactive); for `N#Cc1ccc(C23CC4(C2)[C@H](CN(Cc2ccc(-c5ccccc5)cc2)[C@@H]4c2ccccc2)C3c2ccc(C(F)(F)F)cc2)cc1` (some centres undefined) it is -11.2% (inactive); for `CCCCN1C(=S)NC[C@@H]1Cc1ccccc1` it is 6.24% (inactive). In the case of `CC(C)NC(=O)N(C)C[C@@H]1OCCCC[C@@H](C)Oc2ccc(NC(=O)c3ccccc3)cc2C(=O)N([C@H](C)CO)C[C@@H]1C`, the activity change, negative = cytotoxicity was -7.94% (inactive).

The experiment is the same for the next values; noted with them: HEK293T viability, ATP luminescence (CellTiter-Glo), 48 h; at 28.5 µM (top of the series).
With `COC(=O)C1=C(C)N(Cc2ccc(F)cc2)C(=S)NC1c1ccccc1` (centres undefined), the activity change, negative = cytotoxicity is 17.5% (inactive).

The experiment is the same for the next values; noted with them: HEK293T viability, ATP luminescence (CellTiter-Glo), 48 h; at 38 µM (top of the series).
In the case of `CC(C)C(=O)N1CCC1(C)C(=O)Nc1ccccc1C(C)(C)C` (centres undefined), the activity change, negative = cytotoxicity was -4.57% (inactive).
